Results: PubChem BioAssay (NCI)
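Briefly, cells in 96-well plates were exposed to five compound concentrations for 48 h, and endpoints were estimated by linear interpolation. Abbreviation: GI50, concentration required for 50% inhibition of growth. Definition used: TGI = concentration required for complete inhibition of growth.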

Legend:
Experiment in all cases: DTP human tumour cell line panel, 48 h
UACC-62 melanoma = system: UACC-62 melanoma
SK-MEL-2 melanoma = system: SK-MEL-2 melanoma
HCT-116 colon = system: HCT-116 colon
U251 CNS = system: U251 CNS
RXF 393 renal = system: RXF 393 renal
RPMI-8226 leukemia = system: RPMI-8226 leukemia
A549 NSCLC = system: A549 NSCLC
MOLT-4 leukemia = system: MOLT-4 leukemia
SK-OV-3 ovarian = system: SK-OV-3 ovarian
CAKI-1 renal = system: CAKI-1 renal
MDA-MB-435 = system: MDA-MB-435
NCI-H23 lung = system: NCI-H23 lung
SF-295 CNS = system: SF-295 CNS
SR leukemia = system: SR leukemia
PC-3 prostate = system: PC-3 prostate
NCI/ADR-RES ovarian = system: NCI/ADR-RES ovarian
K-562 leukemia = system: K-562 leukemia
SK-MEL-28 melanoma = system: SK-MEL-28 melanoma
HT29 colon = system: HT29 colon
786-0 renal = system: 786-0 renal
HS 578T breast = system: HS 578T breast
DU-145 prostate = system: DU-145 prostate
COLO 205 colon = system: COLO 205 colon
ACHN renal = system: ACHN renal
SF-539 CNS = system: SF-539 CNS
T-47D breast = system: T-47D breast
NCI-H522 lung = system: NCI-H522 lung
IGROV1 ovarian = system: IGROV1 ovarian
UO-31 renal = system: UO-31 renal
SK-MEL-5 melanoma = system: SK-MEL-5 melanoma
SN12C renal = system: SN12C renal
SNB-75 CNS = system: SNB-75 CNS
MALME-3M melanoma = system: MALME-3M melanoma
SNB-19 CNS = system: SNB-19 CNS
HCT-15 colon = system: HCT-15 colon
UACC-257 melanoma = system: UACC-257 melanoma
A498 renal = system: A498 renal
LOX IMVI melanoma = system: LOX IMVI melanoma
HOP-92 NSCLC = system: HOP-92 NSCLC
HL-60(TB) leukemia = system: HL-60(TB) leukemia
OVCAR-3 ovarian = system: OVCAR-3 ovarian
SF-268 CNS = system: SF-268 CNS
OVCAR-4 ovarian = system: OVCAR-4 ovarian
CCRF-CEM leukemia = system: CCRF-CEM leukemia
HCC-2998 colon = system: HCC-2998 colon
BT-549 breast = system: BT-549 breast
OVCAR-8 ovarian = system: OVCAR-8 ovarian
OVCAR-5 ovarian = system: OVCAR-5 ovarian
NCI-H226 lung = system: NCI-H226 lung
TK-10 renal = system: TK-10 renal
NCI-H460 lung = system: NCI-H460 lung
MCF7 breast = system: MCF7 breast
KM12 colon = system: KM12 colon
MDA-MB-231 breast = system: MDA-MB-231 breast
SW-620 colon = system: SW-620 colon
HOP-62 NSCLC = system: HOP-62 NSCLC
M14 melanoma = system: M14 melanoma

## OCc1ccc(N2CCCC2)cc1Cl
UACC-62 melanoma
  GI50: 0.879 µM
  TGI: 4.28 µM
SK-MEL-2 melanoma
  GI50: 12.9 µM
  TGI: 51.5 µM
HCT-116 colon
  GI50: 1.6 µM
  TGI: > 100 µM
U251 CNS
  GI50: 5.52 µM
  TGI: > 60.8 µM
RXF 393 renal
  GI50: 9.57 µM
  TGI: 27.1 µM
RPMI-8226 leukemia
  GI50: 6.22 µM
  TGI: > 84.5 µM
A549 NSCLC
  GI50: 23.2 µM
  TGI: > 100 µM
MOLT-4 leukemia
  GI50: 36.9 µM
  TGI: > 100 µM
SK-OV-3 ovarian
  GI50: 27.3 µM
  TGI: > 90.6 µM
CAKI-1 renal
  GI50: 14.3 µM
  TGI: 50.3 µM
MDA-MB-435
  GI50: > 100 µM
  TGI: > 100 µM
NCI-H23 lung
  GI50: 27.5 µM
  TGI: > 100 µM
SF-295 CNS
  GI50: 1.78 µM
  TGI: 37.4 µM
SR leukemia
  GI50: 46.2 µM
  TGI: > 100 µM
PC-3 prostate
  GI50: > 84.7 µM
  TGI: > 100 µM
NCI/ADR-RES ovarian
  GI50: 34.9 µM
  TGI: > 100 µM
K-562 leukemia
  GI50: 8.18 µM
  TGI: > 100 µM
SK-MEL-28 melanoma
  GI50: > 100 µM
  TGI: > 100 µM
HT29 colon
  GI50: 7.9 µM
  TGI: 76.4 µM
786-0 renal
  GI50: 27.5 µM
  TGI: > 100 µM
HS 578T breast
  GI50: > 50 µM
  TGI: > 100 µM
DU-145 prostate
  GI50: 34.4 µM
  TGI: > 100 µM
COLO 205 colon
  GI50: 2.01 µM
  TGI: 5.11 µM
ACHN renal
  GI50: 29.2 µM
  TGI: > 75.3 µM
SF-539 CNS
  GI50: > 58.7 µM
  TGI: > 100 µM
T-47D breast
  GI50: 0.538 µM
  TGI: 2.88 µM
NCI-H522 lung
  GI50: 14.5 µM
  TGI: 32.5 µM
IGROV1 ovarian
  GI50: 0.452 µM
  TGI: 2 µM
UO-31 renal
  GI50: 17.2 µM
  TGI: 50 µM
SK-MEL-5 melanoma
  GI50: 18.7 µM
  TGI: > 75.5 µM
SN12C renal
  GI50: 47.6 µM
  TGI: > 100 µM
SNB-75 CNS
  GI50: 24.5 µM
  TGI: > 100 µM
MALME-3M melanoma
  GI50: 27.3 µM
  TGI: 73 µM
SNB-19 CNS
  GI50: > 100 µM
  TGI: > 100 µM
HCT-15 colon
  GI50: 31 µM
  TGI: > 100 µM
UACC-257 melanoma
  GI50: 0.338 µM
  TGI: 1.28 µM
A498 renal
  GI50: 0.147 µM
  TGI: 0.289 µM
LOX IMVI melanoma
  GI50: > 86.9 µM
  TGI: > 100 µM
HOP-92 NSCLC
  GI50: 2.22 µM
  TGI: 24.2 µM
HL-60(TB) leukemia
  GI50: 13.7 µM
  TGI: > 75.6 µM
OVCAR-3 ovarian
  GI50: 2.18 µM
  TGI: 7.25 µM
SF-268 CNS
  GI50: > 61.3 µM
  TGI: > 100 µM
OVCAR-4 ovarian
  GI50: 1.83 µM
  TGI: 12.3 µM
CCRF-CEM leukemia
  GI50: 31.3 µM
  TGI: > 100 µM
HCC-2998 colon
  GI50: 15.7 µM
  TGI: 69.9 µM
BT-549 breast
  GI50: 32 µM
  TGI: > 100 µM
OVCAR-8 ovarian
  GI50: 46 µM
  TGI: > 100 µM
OVCAR-5 ovarian
  GI50: 0.148 µM
  TGI: 0.498 µM
NCI-H226 lung
  GI50: 0.146 µM
  TGI: 0.365 µM
TK-10 renal
  GI50: 0.201 µM
  TGI: 0.556 µM
NCI-H460 lung
  GI50: 3.55 µM
  TGI: 28.5 µM
MCF7 breast
  GI50: 1.95 µM
  TGI: > 61.9 µM
KM12 colon
  GI50: > 100 µM
  TGI: > 100 µM
MDA-MB-231 breast
  GI50: > 79.4 µM
  TGI: > 100 µM
SW-620 colon
  GI50: 10.7 µM
  TGI: > 100 µM
HOP-62 NSCLC
  GI50: 10.2 µM
  TGI: > 100 µM
M14 melanoma
  GI50: > 100 µM
  TGI: > 100 µM
